Test results: ChEMBL document CHEMBL1201862, “PubChem BioAssay data set” (2004)
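Method: 48-hour compound exposure of cells in 96-well plates, five concentrations, linear interpolation of endpoints. GI50 is the concentration that inhibits growth by half.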 Activity calls are given as the source filed them. Rule as the data show it: active = GI50 up to about 1.1 µM and inactive = higher.

What was measured:
Assay in all cases: NCI tumour cell line growth inhibition, 48 h
[1] = test system: UACC-62
[2] = test system: SR
[3] = test system: T47D
[4] = test system: CAKI-1
[5] = test system: EKVX
[6] = test system: SF-295
[7] = test system: Malme-3M
[8] = test system: MCF7
[9] = test system: RXF 393
[10] = test system: SF-539
[11] = test system: SK-MEL-28
[12] = test system: HT-29
[13] = test system: TK-10
[14] = test system: NCI/ADR-RES
[15] = test system: LOX IMVI
[16] = test system: NCI-H460
[17] = test system: Hs-578T
[18] = test system: SN12C
[19] = test system: OVCAR-5
[20] = test system: MDA-N
[21] = test system: MDA-MB-435
[22] = test system: SK-MEL-2
[23] = test system: MDA-MB-231
[24] = test system: M14
[25] = test system: UACC-257
[26] = test system: HOP-62
[27] = test system: RPMI-8226
[28] = test system: SK-OV-3
[29] = test system: A549
[30] = test system: HCT-15
[31] = test system: SNB-19
[32] = test system: COLO 205
[33] = test system: OVCAR-8
[34] = test system: SF-268
[35] = test system: PC-3
[36] = test system: HCT-116
[37] = test system: IGROV-1
[38] = test system: NCI-H522
[39] = test system: CCRF-CEM
[40] = test system: HL-60
[41] = test system: OVCAR-4
[42] = test system: SW-620
[43] = test system: U-251
[44] = test system: A498
[45] = test system: ACHN
[46] = test system: SNB-75
[47] = test system: OVCAR-3
[48] = test system: DU-145
[49] = test system: BT-549
[50] = test system: NCI-H23
[51] = test system: 786-0
[52] = test system: KM12
[53] = test system: SK-MEL-5
[54] = test system: UO-31

Structure (SMILES): C/C(=N\Nc1nc2ccccc2s1)c1ccc2ccccc2n1
- GI50 [1]: > 100 µM (inactive)
- GI50 [2]: 2 µM (inactive)
- GI50 [3]: 5.36 µM (inactive)
- GI50 [4]: 55.6 µM (inactive)
- GI50 [5]: 12.2 µM (inactive)
- GI50 [6]: > 100 µM (inactive)
- GI50 [7]: 58.6 µM (inactive)
- GI50 [8]: 46.3 µM (inactive)
- GI50 [9]: 26.4 µM (inactive)
- GI50 [10]: 58.7 µM (inactive)
- GI50 [11]: > 100 µM (inactive)
- GI50 [12]: 85.9 µM (inactive)
- GI50 [13]: 88.7 µM (inactive)
- GI50 [14]: > 100 µM (inactive)
- GI50 [15]: > 100 µM (inactive)
- GI50 [16]: > 100 µM (inactive)
- GI50 [17]: 84.1 µM (inactive)
- GI50 [18]: > 100 µM (inactive)
- GI50 [19]: 91 µM (inactive)
- GI50 [20]: > 100 µM (inactive)
- GI50 [21]: > 100 µM (inactive)
- GI50 [22]: 58.5 µM (inactive)
- GI50 [23]: 46 µM (inactive)
- GI50 [24]: 46.2 µM (inactive)
- GI50 [25]: > 100 µM (inactive)
- GI50 [26]: > 100 µM (inactive)
- GI50 [27]: 18.5 µM (inactive)
- GI50 [28]: > 100 µM (inactive)
- GI50 [29]: > 100 µM (inactive)
- GI50 [30]: > 100 µM
- GI50 [31]: > 100 µM (inactive)
- GI50 [32]: 75.7 µM (inactive)
- GI50 [33]: > 100 µM (inactive)
- GI50 [34]: 28.8 µM (inactive)
- GI50 [35]: > 100 µM (inactive)
- GI50 [36]: > 100 µM (inactive)
- GI50 [37]: 0.402 µM (active)
- GI50 [38]: 32.3 µM (inactive)
- GI50 [39]: 25.7 µM (inactive)
- GI50 [40]: 23.2 µM (inactive)
- GI50 [41]: 11.2 µM (inactive)
- GI50 [42]: > 100 µM (inactive)
- GI50 [43]: > 100 µM (inactive)
- GI50 [44]: > 100 µM (inactive)
- GI50 [45]: > 100 µM (inactive)
- GI50 [46]: 15.5 µM (inactive)
- GI50 [47]: 34.8 µM (inactive)
- GI50 [48]: > 100 µM (inactive)
- GI50 [49]: > 100 µM (inactive)
- GI50 [50]: > 100 µM (inactive)
- GI50 [51]: > 100 µM (inactive)
- GI50 [52]: 59.2 µM (inactive)
- GI50 [53]: 30.2 µM (inactive)
- GI50 [54]: 53.7 µM (inactive)
